Experimental data published in ChEMBL document CHEMBL1152307, “Antimycobacterial and H1-antihistaminic activity of 2-substituted piperidine derivatives” (Bioorg Med Chem, 2008).
Values after ≈ are worked out from the molar mass of the structure shown.

Tests used:
[1] = tested on: Mycobacterium tuberculosis; experiment: Antimycobacterial activity against Mycobacterium tuberculosis H37Rv at 6.25 ug/ml after 4 days by microplate alamar blue assay; format: functional; conditions: 96 h
[2] = tested on: Mycobacterium tuberculosis; experiment: Antimycobacterial activity against Mycobacterium tuberculosis H37Rv after 4 days by microplate alamar blue assay; format: functional; conditions: 96 h
[3] = Cytotoxicity against HEK293 cells after 72 hrs by MTT assay; format: cell-based; conditions: human, read-out: LC50
[4] = molecular target: Histamine H1 receptor (Cavia porcellus) (UniProt P31389); experiment: Antagonist activity at guinea pig ileum histamine H1 receptor at 0.3 x 10'4 M; format: functional, tissue-based
Chain of Histamine H1 receptor (Cavia porcellus) (P31389 whole entry): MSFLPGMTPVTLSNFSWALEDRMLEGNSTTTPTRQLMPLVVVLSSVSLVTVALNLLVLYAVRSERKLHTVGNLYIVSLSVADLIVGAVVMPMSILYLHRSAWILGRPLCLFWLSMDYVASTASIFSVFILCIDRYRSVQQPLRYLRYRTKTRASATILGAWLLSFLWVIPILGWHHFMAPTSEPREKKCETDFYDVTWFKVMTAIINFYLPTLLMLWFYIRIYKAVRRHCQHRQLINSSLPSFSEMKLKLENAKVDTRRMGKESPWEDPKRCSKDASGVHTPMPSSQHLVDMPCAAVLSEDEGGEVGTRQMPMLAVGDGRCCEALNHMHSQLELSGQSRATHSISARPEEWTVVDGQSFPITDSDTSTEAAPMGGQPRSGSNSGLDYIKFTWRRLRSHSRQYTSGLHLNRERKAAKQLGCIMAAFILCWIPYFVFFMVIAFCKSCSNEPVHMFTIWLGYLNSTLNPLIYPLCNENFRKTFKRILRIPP

Q: For `CN1CC[C@H](N(Cc2ccccc2)c2ccccc2)CC1(C)C`, which inhibition at 6.25 µg/mL [1] is on record?
A: Its inhibition at 6.25 µg/mL is 31%.

Q: What about the MIC [2] of the same compound?
A: The MIC was > 6.25 µg/mL.

Q: What about the CC50 at 72 h [3] of the same compound?
A: The CC50 at 72 h was 69.5 µg/mL (≈ 225 µM).

Q: With `COc1ccc(N(Cc2ccccc2)[C@H]2CCN(C)C(C)(C)C2)cc1` as the compound, how does the inhibition at 6.25 µg/mL [1] read?
A: Its inhibition at 6.25 µg/mL is 26%.

Q: And the MIC [2]?
A: The MIC was > 6.25 µg/mL.

Q: What about the CC50 at 72 h [3] of the same compound?
A: Its CC50 at 72 h is 82 µg/mL (≈ 242 µM).

Q: Which inhibition at 6.25 µg/mL [1] does the source give for `CC1(C)C[C@@H](N(Cc2ccccc2)c2ccccc2)CCN1c1ccccc1` here?
A: The inhibition at 6.25 µg/mL was 91%.

Q: And the MIC [2]?
A: The MIC was 6.25 µg/mL (≈ 16.9 µM).

Q: And the CC50 at 72 h [3]?
A: Its CC50 at 72 h is 108 µg/mL (≈ 291 µM).

Q: What about the pKb [4] of the same compound?
A: Its pKb is 5.

Q: With `CN1CC[C@H](OC(c2ccccc2)c2ccccc2)CC1(C)C` as the compound, how does the pKb [4] read?
A: Its pKb is 8.19.

Q: Which inhibition at 6.25 µg/mL [1] does the source give for `c1ccc(CN(c2ccccc2)[C@H]2CCN(c3ccccc3)[C@@H](c3ccccc3)C2)cc1` (relative stereo) here?
A: Its inhibition at 6.25 µg/mL is 37%.

Q: And the MIC [2]?
A: The MIC was > 6.25 µg/mL.

Q: What about the CC50 at 72 h [3] of the same compound?
A: The CC50 at 72 h was > 28 µg/mL.

Q: With `CC(C)[C@H]1C[C@@H](N(Cc2ccccc2)c2ccccc2)CCN1C` (relative stereo) as the compound, how does the inhibition at 6.25 µg/mL [1] read?
A: Its inhibition at 6.25 µg/mL is 66%.

Q: What about the MIC [2] of the same compound?
A: Its MIC is > 6.25 µg/mL.

Q: What about the CC50 at 72 h [3] of the same compound?
A: The CC50 at 72 h was 35.9 µg/mL (≈ 111 µM).

Q: Which inhibition at 6.25 µg/mL [1] does the source give for `CC(C)[C@H]1C[C@@H](N(Cc2ccccc2)c2ccccc2)CCN1c1ccccc1` (relative stereo) here?
A: The inhibition at 6.25 µg/mL was 7%.

Q: And the MIC [2]?
A: Its MIC is > 6.25 µg/mL.

Q: What about the CC50 at 72 h [3] of the same compound?
A: Its CC50 at 72 h is 127 µg/mL (≈ 330 µM).

Q: What does the source list for `c1ccc(CN(c2ccccc2)[C@H]2CCN(c3ccccc3)[C@H](c3ccccc3)C2)cc1` (relative stereo)?
A: inhibition at 6.25 µg/mL [1]: 22%; MIC [2]: > 6.25 µg/mL; CC50 at 72 h [3]: > 28 µg/mL

Q: Which inhibition at 6.25 µg/mL [1] does the source give for `CC(C)[C@@H]1C[C@@H](N(Cc2ccccc2)c2ccccc2)CCN1c1ccccc1` (relative stereo) here?
A: The inhibition at 6.25 µg/mL was 52%.

Q: What about the MIC [2] of the same compound?
A: The MIC was > 6.25 µg/mL.

Q: And the CC50 at 72 h [3]?
A: Its CC50 at 72 h is > 28 µg/mL.

Q: With `CN1CCC(N(Cc2ccccc2)c2ccccc2)CC1` [BAMIPINE] as the compound, how does the inhibition at 6.25 µg/mL [1] read?
A: Its inhibition at 6.25 µg/mL is 29%.

Q: And the MIC [2]?
A: Its MIC is > 6.25 µg/mL.

Q: What about the CC50 at 72 h [3] of the same compound?
A: Its CC50 at 72 h is 64.1 µg/mL (≈ 229 µM).

Q: With `NNC(=O)c1ccncc1` [ISONIAZID] as the compound, how does the MIC [2] read?
A: The MIC was 0.025 µg/mL (≈ 0.182 µM).

Q: And the CC50 at 72 h [3]?
A: The CC50 at 72 h was > 200 µg/mL.

Q: For `CO[C@H]1/C=C/O[C@@]2(C)Oc3c(C)c(O)c4c(O)c(c(/C=N/N5CCN(C)CC5)c(O)c4c3C2=O)NC(=O)/C(C)=C\C=C\[C@H](C)[C@H](O)[C@@H](C)[C@@H](O)[C@@H](C)[C@H](OC(C)=O)[C@@H]1C` [RIFAMPIN], which MIC [2] is on record?
A: The MIC was 0.06 µg/mL (≈ 0.0729 µM).

Q: What about the CC50 at 72 h [3] of the same compound?
A: The CC50 at 72 h was > 200 µg/mL.
